Source: BindingDB's records for doi:10.1074/jbc.M606784200 (Chul, 2007)

Assays:
[1] = molecular target: T1, Aldo-keto reductase family 1 member C3 (Homo sapiens, UniProt P42330); assay: Scintillation Proximity Assay (SPA); settings: pH 6; 22 °C
T1 sequence (P42330 whole entry): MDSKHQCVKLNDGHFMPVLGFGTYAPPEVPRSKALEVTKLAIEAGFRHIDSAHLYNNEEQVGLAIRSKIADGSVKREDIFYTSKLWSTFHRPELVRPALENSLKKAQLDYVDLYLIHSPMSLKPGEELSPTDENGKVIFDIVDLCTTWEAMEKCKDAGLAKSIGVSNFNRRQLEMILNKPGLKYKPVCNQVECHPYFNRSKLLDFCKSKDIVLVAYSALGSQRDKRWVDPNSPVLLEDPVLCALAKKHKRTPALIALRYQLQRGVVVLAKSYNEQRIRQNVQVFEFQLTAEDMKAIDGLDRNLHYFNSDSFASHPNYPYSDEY
Description: SPA beads conjugated to anti-mouse IgG were incubated overnight in buffer with anti-testosterone monoclonal antibody. The enzymatic reaction was monitored by its conversion of 4-androstene-3, 17-dione to testosterone. The amount of [14C] testosterone produced in each well was determined by scintillation counting on a Perkin Elmer TopCount instrument and collected as DPMs. The data was then analyzed and percent inhibition and/or IC50 values, based on 10 point serially diluted curves in duplicate or triplicate, were calculated using Microsoft Excel and XLFit programs.

[2] = molecular target: T1, Aldo-keto reductase family 1 member C3; assay: Inhibition Study on the Interconversion of Testosterone to Androstenedione (4-dione); settings: pH 7.5; 37 °C
Description: A radioactive assay was used for the enzyme kinetics in the presence of EM1404 at different concentrations for its Ki determination. Reactions were initiated by the addition of enzyme to the reaction mixture containing substrate and test compounds. After the reaction, the steroids were extracted, separated by TLC migration, and analyzed by phosphorimaging. The Km for testosterone oxidation in the absence of EM-1404, and four apparent Km values in the presence of 1, 3, 10, and 25 nM EM-1404, were determined. Ki value was further determined by a plot of Km vs. the inhibitor concentration.

Structure (SMILES)	IC50 [1]	Ki [2]
CC1(C)CC[C@@]2(CCC3C4CCc5cc(C(N)=O)ccc5C4CC[C@@]32C)OC1=O (stereo partly drawn) [(2R,15'S)-5,5,15'-trimethyl-6-oxospiro[oxane-2,14'-tetracyclo[8.7.0.0^{2,7}.0^{11,15}]heptadecane]-2',4',6'-triene-5'-carboxamide]	3.2 nM	6.9 nM
COCCOc1cc2c(cc1C(=O)ON)C1CC[C@@]3(C)C(CC[C@@]34CCC(C)(C)C(=O)O4)C1CC2 (stereo partly drawn) [(2R,15'S)-5'-(2-methoxyethoxy)-5,5,15'-trimethyl-6-oxospiro[oxane-2,14'-tetracyclo[8.7.0.0^{2,7}.0^{11,15}]heptadecane]-2',4',6'-triene-4'-carboxylate]	9.5 nM	
